# According to article PMC8004798, “Identification of Bioactive Compounds from Marine Natural Products and Exploration of Structure-Activity Relationships (SAR)” (Antibiotics, 2021):
# Assays:
# [1] = tested on: P. aeruginosa PAO1; assay: Resazurin bacterial inhibition assay (MIC), P. aeruginosa; format: cell-based; details: Pseudomonas aeruginosa, PAO1; commercial compounds; 18 h, resazurin; read-out: Minimum Inhibitory Concentration P. aeruginosa
# [2] = tested on: human leukaemia cells (THP-1); assay: Resazurin cytotoxicity assay, THP-1; details: commercial compounds; unit from Table 8 head
# From the text: (§1) To identify marine samples with activity against MRSA, 1434 compounds from the AIMS Bioresources Library (provided by the Queensland Compound Library, Brisbane, Australia, now called Compounds Australia) were screened in a resazurin cell viability assay.
# Toxicity of AIMS Extract Library. Human alveolar epithelial cells (A549), Madin-Darby canine kidney epithelial cells (MDCK), human leukaemia cells (THP-1), human hepatocellular carcinoma cells (Hep-G2) and human embryonic kidney cells 293 (HEK293) were grown and differentiated in complete RPMI (Roswell Park Memorial Institute Medium) and DMEM (Dulbecco’s Modified Eagle’s medium) tissue culture media (RPMIc and DMEMc, from the Thermo Fisher Scientific, Waltham, MA, USA) by adding 10% FBS, 200 µM L-glutamine and 1 mM HEPES buffer solution. To determine toxicity of the AIMS extract library, 2 × 10^5 of each cell type were added to a 96-well plate and left for 48 h in a humidified 5% CO2 incubator at 37 °C to adhere. […] Then, resazurin (10 μL of 0.05% w/v) was added and after 4 h, fluorescence measured as described previously. The cell viability was calculated as percentage fluorescence relative to untreated cells.
# [3] = tested on: human hepatocellular carcinoma cells (Hep-G2); assay: Resazurin cytotoxicity assay, HepG2; details: commercial compounds; unit from Table 8 head
# From the text: as §1
# (§2) Toxicity of AIMS Extract Library. Human alveolar epithelial cells (A549), Madin-Darby canine kidney epithelial cells (MDCK), human leukaemia cells (THP-1), human hepatocellular carcinoma cells (Hep-G2) and human embryonic kidney cells 293 (HEK293) were grown and differentiated in complete RPMI (Roswell Park Memorial Institute Medium) and DMEM (Dulbecco’s Modified Eagle’s medium) tissue culture media (RPMIc and DMEMc, from the Thermo Fisher Scientific, Waltham, MA, USA) by adding 10% FBS, 200 µM L-glutamine and 1 mM HEPES buffer solution. To determine toxicity of the AIMS extract library, 2 × 10^5 of each cell type were added to a 96-well plate and left for 48 h in a humidified 5% CO2 incubator at 37 °C to adhere. Extract samples at a final concentration of 0.5 mg mL^−1 were added to the wells, then the plates incubated for 4 more days in a humidified 5% CO2 incubator at 37 °C. Then, resazurin (10 μL of 0.05% w/v) was added and after 4 h, fluorescence measured as described previously. The cell viability was calculated as percentage fluorescence relative to untreated cells.
# [4] = tested on: methicillin-resistant Staphylococcus aureus (MRSA); assay: Resazurin bacterial inhibition assay (MIC), MRSA; format: cell-based; details: Staphylococcus aureus, MRSA; commercial compounds; 18 h, resazurin; read-out: Minimum Inhibitory Concentration MRSA
# [5] = tested on: different test pathogens (MRSA, E. coli, P. aeruginosa, M. tuberculosis); assay: Bacterial inhibition assay (MIC), summary over test pathogens; format: cell-based; details: read-out: MICs against MRSA, E. coli and P. aeruginosa
# Method: For screening of the AIMS library, each test sample (10 µL) was dispensed into a separate well of a 96 well microtiter plates (final sample concentration 0.5 mg mL^−1) using sterile dH2O. […] Bacterial suspension (90 µL, OD600nm 0.001) was added to each well and plates were incubated at 37 °C for either 18 h (MRSA, P. aeruginosa PAO1, E. coli EC958) or 7 days for M. tuberculosis H37Rv as described previously. Resazurin (10 μL; 0.05% w/v) was added and plates were incubated for 3 h or 24 h (M. tuberculosis) at 37 °C. The inhibitory activity was calculated by visual determination of colour change within wells or detection of fluorescence at 590 nm using a FLUOstar Omega microplate reader (BMG Labtech, Ortenberg, Germany). Percentage survival was calculated in comparison to the average of untreated control wells after normalising for background readings.
# [6] = tested on: human embryonic kidney cells 293 (HEK293); assay: Resazurin cytotoxicity assay, HEK 293; details: commercial compounds; unit from Table 8 head
# From the text: as §1, §2
# [7] = tested on: E. coli EC958; assay: Resazurin bacterial inhibition assay (MIC), E. coli; format: cell-based; details: Escherichia coli, EC958; commercial compounds; 18 h, resazurin; read-out: Minimum Inhibitory Concentration E. coli
# [8] = tested on: M. tuberculosis H37Rv; assay: Resazurin bacterial inhibition assay (MIC), M. tuberculosis; format: cell-based; details: Mycobacterium tuberculosis, 168 h, commercial compounds, 7 days, read-out: Minimum Inhibitory Concentration M. tuberculosis H37Rv
# [9] = tested on: Human alveolar epithelial cells (A549); assay: Resazurin cytotoxicity assay, A549; details: commercial compounds; unit from Table 8 head
# From the text: as §1, §2
SMILES,MIC [1],Minimum Toxicity Concentration THP-1 [2],Minimum Toxicity Concentration HepG2 [3],MIC [4],MIC [5],Minimum Toxicity Concentration HEK 293 [6],MIC [7],MIC [8],Minimum Toxicity Concentration A549 [9]
CCCCCCN [Hexylamine],50 µM,>100 µM,>100 µM,> 100 µM,50 to 100 µM,>100 µM,> 100 µM,> 100 µM,>100 µM
CCCCCCN(CCCCCC)CCCCCC [Trihexylamine],6.5 µM,>100 µM,>100 µM,3 µM,3 to 6.5 µM,50 µM,3 µM,> 100 µM,>100 µM
